Oligonucleotides are given in HELM: sugar(base)linkage, 5' to 3'; d 2'-deoxyribose, r ribose, m 2'-O-methylribose, p phosphate. ss, as = sense and antisense strand
Biological target: Cacnb1 (rat)
Assay: reporter assay of Huesken 2005
Settings: siRNA
Further: test concentration or dose not given here.

First: RNA1{r(A)p.r(A)p.r(U)p.r(G)p.r(U)p.r(U)p.r(G)p.r(G)p.r(C)p.r(U)p.r(A)p.r(C)p.r(A)p.r(A)p.r(U)p.r(C)p.r(C)p.r(G)p.r(U)p.d(T)p.d(T)}|RNA2{r(A)p.r(C)p.r(G)p.r(G)p.r(A)p.r(U)p.r(U)p.r(G)p.r(U)p.r(A)p.r(G)p.r(C)p.r(C)p.r(A)p.r(A)p.r(C)p.r(A)p.r(U)p.r(U)p.d(T)p.d(G)}$$$RNA1{StrandType:ss}|RNA2{StrandType:as}$
Second: RNA1{r(U)p.r(U)p.r(A)p.r(G)p.r(C)p.r(C)p.r(C)p.r(A)p.r(G)p.r(C)p.r(U)p.r(C)p.r(G)p.r(A)p.r(G)p.r(A)p.r(A)p.r(A)p.r(G)p.d(T)p.d(T)}|RNA2{r(C)p.r(U)p.r(U)p.r(U)p.r(C)p.r(U)p.r(C)p.r(G)p.r(A)p.r(G)p.r(C)p.r(U)p.r(G)p.r(G)p.r(G)p.r(C)p.r(U)p.r(A)p.r(A)p.d(G)p.d(G)}$$$RNA1{StrandType:ss}|RNA2{StrandType:as}$
The normalised inhibition (eCFP-eYFP dual reporter) of the first is higher: 90.9% for the first, 63.7% for the second.

Going from “RNA1{r(C)p.r(U)p.r(G)p.r(G)p.r(U)p.r(G)p.r(G)p.r(A)p.r(U)p.r(C)p.r(G)p.r(G)p.r(G)p.r(A)p.r(G)p.r(G)p.r(C)p.r(U)p.r(G)p.d(T)p.d(T)}|RNA2{r(C)p.r(A)p.r(G)p.r(C)p.r(C)p.r(U)p.r(C)p.r(C)p.r(C)p.r(G)p.r(A)p.r(U)p.r(C)p.r(C)p.r(A)p.r(C)p.r(C)p.r(A)p.r(G)p.d(T)p.d(C)}$$$RNA1{StrandType:ss}|RNA2{StrandType:as}$” to “RNA1{r(A)p.r(A)p.r(G)p.r(A)p.r(A)p.r(U)p.r(G)p.r(A)p.r(G)p.r(C)p.r(U)p.r(G)p.r(G)p.r(A)p.r(G)p.r(G)p.r(G)p.r(C)p.r(U)p.d(T)p.d(T)}|RNA2{r(A)p.r(G)p.r(C)p.r(C)p.r(C)p.r(U)p.r(C)p.r(C)p.r(A)p.r(G)p.r(C)p.r(U)p.r(C)p.r(A)p.r(U)p.r(U)p.r(C)p.r(U)p.r(U)p.d(A)p.d(T)}$$$RNA1{StrandType:ss}|RNA2{StrandType:as}$”, the normalised inhibition (eCFP-eYFP dual reporter) rises from 40.7% to 54.2%.

Compared with “RNA1{r(C)p.r(U)p.r(G)p.r(A)p.r(G)p.r(G)p.r(U)p.r(A)p.r(C)p.r(A)p.r(G)p.r(A)p.r(G)p.r(U)p.r(G)p.r(A)p.r(A)p.r(A)p.r(U)p.d(T)p.d(T)}|RNA2{r(A)p.r(U)p.r(U)p.r(U)p.r(C)p.r(A)p.r(C)p.r(U)p.r(C)p.r(U)p.r(G)p.r(U)p.r(A)p.r(C)p.r(C)p.r(U)p.r(C)p.r(A)p.r(G)p.d(C)p.d(C)}$$$RNA1{StrandType:ss}|RNA2{StrandType:as}$”, “RNA1{r(U)p.r(C)p.r(G)p.r(A)p.r(C)p.r(A)p.r(G)p.r(A)p.r(G)p.r(C)p.r(A)p.r(C)p.r(G)p.r(U)p.r(G)p.r(C)p.r(C)p.r(C)p.r(C)p.d(T)p.d(T)}|RNA2{r(G)p.r(G)p.r(G)p.r(G)p.r(C)p.r(A)p.r(C)p.r(G)p.r(U)p.r(G)p.r(C)p.r(U)p.r(C)p.r(U)p.r(G)p.r(U)p.r(C)p.r(G)p.r(A)p.d(C)p.d(T)}$$$RNA1{StrandType:ss}|RNA2{StrandType:as}$” is lower in normalised inhibition (eCFP-eYFP dual reporter): 59.1% for the first, 39.9% for the second.

Going from “RNA1{r(A)p.r(A)p.r(C)p.r(C)p.r(A)p.r(A)p.r(U)p.r(U)p.r(G)p.r(G)p.r(A)p.r(A)p.r(G)p.r(A)p.r(U)p.r(G)p.r(C)p.r(C)p.r(U)p.d(T)p.d(T)}|RNA2{r(A)p.r(G)p.r(G)p.r(C)p.r(A)p.r(U)p.r(C)p.r(U)p.r(U)p.r(C)p.r(C)p.r(A)p.r(A)p.r(U)p.r(U)p.r(G)p.r(G)p.r(U)p.r(U)p.d(C)p.d(T)}$$$RNA1{StrandType:ss}|RNA2{StrandType:as}$” to “RNA1{r(C)p.r(C)p.r(A)p.r(C)p.r(C)p.r(C)p.r(A)p.r(A)p.r(U)p.r(C)p.r(C)p.r(G)p.r(C)p.r(U)p.r(G)p.r(C)p.r(U)p.r(G)p.r(A)p.d(T)p.d(T)}|RNA2{r(U)p.r(C)p.r(A)p.r(G)p.r(C)p.r(A)p.r(G)p.r(C)p.r(G)p.r(G)p.r(A)p.r(U)p.r(U)p.r(G)p.r(G)p.r(G)p.r(U)p.r(G)p.r(G)p.d(C)p.d(G)}$$$RNA1{StrandType:ss}|RNA2{StrandType:as}$”, the normalised inhibition (eCFP-eYFP dual reporter) rises from 50% to 81.5%.

Going from “RNA1{r(A)p.r(C)p.r(C)p.r(C)p.r(C)p.r(A)p.r(G)p.r(C)p.r(A)p.r(A)p.r(A)p.r(C)p.r(A)p.r(C)p.r(A)p.r(U)p.r(U)p.r(A)p.r(U)p.d(T)p.d(T)}|RNA2{r(A)p.r(U)p.r(A)p.r(A)p.r(U)p.r(G)p.r(U)p.r(G)p.r(U)p.r(U)p.r(U)p.r(G)p.r(C)p.r(U)p.r(G)p.r(G)p.r(G)p.r(G)p.r(U)p.d(T)p.d(G)}$$$RNA1{StrandType:ss}|RNA2{StrandType:as}$” to “RNA1{r(G)p.r(G)p.r(G)p.r(G)p.r(A)p.r(G)p.r(C)p.r(U)p.r(G)p.r(G)p.r(G)p.r(C)p.r(C)p.r(A)p.r(G)p.r(C)p.r(C)p.r(C)p.r(C)p.d(T)p.d(T)}|RNA2{r(G)p.r(G)p.r(G)p.r(G)p.r(C)p.r(U)p.r(G)p.r(G)p.r(C)p.r(C)p.r(C)p.r(A)p.r(G)p.r(C)p.r(U)p.r(C)p.r(C)p.r(C)p.r(C)p.d(G)p.d(G)}$$$RNA1{StrandType:ss}|RNA2{StrandType:as}$”, the normalised inhibition (eCFP-eYFP dual reporter) falls from 63.4% to 19.2%.

First: RNA1{r(G)p.r(A)p.r(G)p.r(U)p.r(G)p.r(A)p.r(A)p.r(A)p.r(U)p.r(C)p.r(G)p.r(A)p.r(G)p.r(C)p.r(G)p.r(G)p.r(A)p.r(U)p.r(C)p.d(T)p.d(T)}|RNA2{r(G)p.r(A)p.r(U)p.r(C)p.r(C)p.r(G)p.r(C)p.r(U)p.r(C)p.r(G)p.r(A)p.r(U)p.r(U)p.r(U)p.r(C)p.r(A)p.r(C)p.r(U)p.r(C)p.d(T)p.d(G)}$$$RNA1{StrandType:ss}|RNA2{StrandType:as}$
Second: RNA1{r(G)p.r(G)p.r(C)p.r(C)p.r(G)p.r(G)p.r(U)p.r(U)p.r(C)p.r(U)p.r(G)p.r(G)p.r(G)p.r(G)p.r(C)p.r(G)p.r(C)p.r(A)p.r(A)p.d(T)p.d(T)}|RNA2{r(U)p.r(U)p.r(G)p.r(C)p.r(G)p.r(C)p.r(C)p.r(C)p.r(C)p.r(A)p.r(G)p.r(A)p.r(A)p.r(C)p.r(C)p.r(G)p.r(G)p.r(C)p.r(C)p.d(C)p.d(A)}$$$RNA1{StrandType:ss}|RNA2{StrandType:as}$
The normalised inhibition (eCFP-eYFP dual reporter) of the first is higher: 84.9% for the first, 79.6% for the second.

Going from “RNA1{r(A)p.r(G)p.r(C)p.r(A)p.r(A)p.r(C)p.r(C)p.r(A)p.r(C)p.r(C)p.r(C)p.r(A)p.r(C)p.r(C)p.r(U)p.r(G)p.r(G)p.r(C)p.r(C)p.d(T)p.d(T)}|RNA2{r(G)p.r(G)p.r(C)p.r(C)p.r(A)p.r(G)p.r(G)p.r(U)p.r(G)p.r(G)p.r(G)p.r(U)p.r(G)p.r(G)p.r(U)p.r(U)p.r(G)p.r(C)p.r(U)p.d(G)p.d(G)}$$$RNA1{StrandType:ss}|RNA2{StrandType:as}$” to “RNA1{r(U)p.r(A)p.r(C)p.r(A)p.r(C)p.r(G)p.r(G)p.r(A)p.r(G)p.r(C)p.r(C)p.r(A)p.r(G)p.r(G)p.r(A)p.r(G)p.r(A)p.r(C)p.r(U)p.d(T)p.d(T)}|RNA2{r(A)p.r(G)p.r(U)p.r(C)p.r(U)p.r(C)p.r(C)p.r(U)p.r(G)p.r(G)p.r(C)p.r(U)p.r(C)p.r(C)p.r(G)p.r(U)p.r(G)p.r(U)p.r(A)p.d(G)p.d(A)}$$$RNA1{StrandType:ss}|RNA2{StrandType:as}$”, the normalised inhibition (eCFP-eYFP dual reporter) rises from 31.6% to 54.9%.

Reference: the OligoGym collection
